Laboratory results as given in US4173481A (priority 1976, dated 1979).

Experiments:
[1] = Melting Time in 0.2 N aqueous sodium hydroxide at 60° C.; conditions: 0.2 N NaOH
Experimental: An emulsion for a green-sensitive layer of a color negative light-sensitivematerial obtained in the same manner as described in Example 1 was divided into four portions, a first portion was used as a control. To the other three portions were added an aqueous solution of Compound 1, 1,3,5-tris(β-vinylsulfonylpropyl)hexahydro-s-triazine (Compound C), bis(vinylsulfonylmethyl) ether (Compound D) in an amount of 1.5 g per 100 g of dry gelatin, respectively. Each emulsion was coated on a subbed polyethylene terephthalate support at a thickness of 5μ and dried.
The strength of the layer was determined using the two methods described below with samples stored at 25° C., 65% RH for 2 days or for 20 days and a sample heat treated at 50° C., 80% RH for 2 days.
A sample strip was immersed in a 0.2 N aqueous solution of sodium hydroxide at 60° C. and the time (min) when the emulsion layer began to melt was measured.

[2] = Photographic properties (fog, relative sensitivity, maximum density of the magenta dye image); conditions: 1.5 g per 100 g of dry gelatin, Table 1; for Relative Sensitivity: control = 100; for Maximum Density: magenta dye image
Experimental: A silver iodobromide emulsion containing 6.0 mol % of silver iodide was optimally ripened using a sulfur-containing sensitizer and a gold sensitizer to prepare a high speed negative emulsion. To the emulsion were added anhydro-5,5'-tetrachloro-1,1'-diethyl-3,3'-di-(3-sulfopropyl)-benzimidazolocarbocyanine hydroxide as a spectral sensitizer, 4-hydroxy-6-methyl-1,3,3a,7-tetrazaindene as a stabilizer, and 1-(2,4,6-trichlorophenyl)-3-[3-(2,4-di-tert-amylphenoxyacetamide)benzamido]-5-pyrazolone (which was dissolved in tricresyl phosphate and ethyl acetate and dispersed in gelatin with sodium dodecylbenzenesulfonate) as a magenta color forming coupler to prepare an emulsion for a green-sensitivelayer of a color negative light-sensitive material. The emulsion thus-obtained was divided into four portions and a first portion was used as control. To the other three portions were added an aqueous solution of Compound 1 of the present invention, dimethylol urea (Compound A) and mucochloric acid (Compound B), respectively, in an amount of 1.5 g per 100 g of dry gelatin. Each emulsion was coated on a subbed cellulose triacetate support in a coated coupler amount of 1.5×10^-3 mol/m^2 and dried.
These samples were exposed to green light using an NSG II type sensitometer and processed according to the color processing procedure as described in Example 1 of Japanese patent application (OPI) No. 51940/1976 as follows.
The density of the magenta dye image thus-obtained was measured and fog, relative sensitivity and maximum density were determined.

[3] = Strength of gelatin layer surface; conditions: 65% RH, 5×10^-5 mol per g of dry gelatin
Experimental: A sample was immersed in water at 25° C. for 5 minutes. A pin equipped with a steel ball having a radius of 0.2 mm on the point thereof was pressed on the surface of the sample and the pin was moved at a rate of 5 mm per second on the surface of the sample while the load applied to the pin was continuously varied in the range of 0 to 100 g. The load (g) at which a scratch occurred on the surface was measured.
A 5% solution of gelatin was divided into four portions, a first portion was used as a control and to the other three portions were added Compound 1 of the present invention, Compound B and Compound E in an amount of 5×10^-5 mol per g of dry gelatin, respectively. Each gelatin solution was coated on a subbed polyester film support and dried.
After storing the samples obtained under conditions of 25° C., 65% RH, the strength of the gelatin layer surface thereof was determined.

1,3,5-tris(β-vinylsulfonylpropyl)hexahydro-s-triazine [Compound C]
Melting Time ([1]; 2 Days Heated, 50° C., 80% RH): 3 min
Melting Time ([1]; 2 Days at 25° C., 65% RH): 1 min
Melting Time ([1]; 20 Days at 25° C., 65% RH): 2.5 min

O=C/C(Cl)=C(/Cl)C(=O)O [Compound B, mucochloric acid]
Fog [2]: 0.14
Relative Sensitivity [2]: 85
Maximum Density [2]: 2.70
Strength of Layer Surface ([3]; 2 Days at 25° C.): 21 g
Strength of Layer Surface ([3]; 7 Days at 25° C.): 36 g
Strength of Layer Surface ([3]; 14 Days at 25° C.): 45 g
Strength of Layer Surface ([3]; 21 Days at 25° C.): 52 g

C=CS(=O)(=O)CCS(=O)(=O)C=C [Compound E, 1,2-bis(vinylsulfonyl)ethane]
Strength of Layer Surface ([3]; 2 Days at 25° C.): 18 g
Strength of Layer Surface ([3]; 7 Days at 25° C.): 25 g
Strength of Layer Surface ([3]; 14 Days at 25° C.): 32 g
Strength of Layer Surface ([3]; 21 Days at 25° C.): 36 g

C=CS(=O)(=O)CC(O)CS(=O)(=O)C=C [Compound 1, 1,3-bis(Vinylsulfonyl)-2-propanol]
Fog [2]: 0.10
Relative Sensitivity [2]: 92
Maximum Density [2]: 2.80
Strength of Layer Surface ([3]; 2 Days at 25° C.): 48 g
Strength of Layer Surface ([3]; 7 Days at 25° C.): 56 g
Strength of Layer Surface ([3]; 14 Days at 25° C.): 58 g
Strength of Layer Surface ([3]; 21 Days at 25° C.): 60 g
Melting Time ([1]; 2 Days Heated, 50° C., 80% RH): 30 min
Melting Time ([1]; 2 Days at 25° C., 65% RH): 13.5 min
Melting Time ([1]; 20 Days at 25° C., 65% RH): 27 min
